Earlier results, collected in CN104306347A, “一种卡维地洛双层缓释片及其制备方法” (BEIJING D-VENTUREPHARM TECHNOLOGY DEVELOPMENT Co Ltd, priority 2014, dated 2015).

How the values were obtained:
[1] = in vivo

## COc1ccccc1OCCNCC(O)COc1cccc2[nH]c3ccccc3c12 (stereo not shown) [卡维地洛]
[1]
  incidence of adverse reactions: 很低
  risk of postural hypotension when taken with food: 可减少引起体位性低血压的危险性
  tolerability: 耐受性良好
After oral administration
  first-pass effect: 有明显的首过效应
  oral absorption: 易于吸收
In vivo
  elimination phase half-life (t1/2b): 7~10 h
  excretion in urine as unchanged drug: < 2%
  plasma clearance: 500~700 ml/min
  steady-state volume of distribution: ~1.5 L
Metabolites excreted via bile then faeces
  metabolism: 代谢完全
oral
  absolute bioavailability (F): 25%~35%
Taken with food
  absorption when taken with food: 吸收减慢
  relative bioavailability when taken with food: 没有明显影响
